Assay results reported in US20110294799A1, “Organic Compounds” (NOVARTIS AG, priority 2007, published 2011).

What was measured:
[1] = biological target: T1, GABA-A alpha1 receptor (alpha 1 subunit together with a beta and a gamma subunit) (Homo sapiens, UniProt P14867+P18507); experiment: GABA-A receptor modulation, voltage-sensitive dye fluorescence in transfected eukaryotic cell line (alpha1); format: cell-based; conditions: compounds at 3 μM, sub-maximal concentration of GABA (EC20); for activation at 3 µM: read-out: alpha1 % mod (percentage of increase of the fluorescent signal compared to signal without the agent)
T1 construct: expressed in transfected cells
T1 sequence (P14867 28-456): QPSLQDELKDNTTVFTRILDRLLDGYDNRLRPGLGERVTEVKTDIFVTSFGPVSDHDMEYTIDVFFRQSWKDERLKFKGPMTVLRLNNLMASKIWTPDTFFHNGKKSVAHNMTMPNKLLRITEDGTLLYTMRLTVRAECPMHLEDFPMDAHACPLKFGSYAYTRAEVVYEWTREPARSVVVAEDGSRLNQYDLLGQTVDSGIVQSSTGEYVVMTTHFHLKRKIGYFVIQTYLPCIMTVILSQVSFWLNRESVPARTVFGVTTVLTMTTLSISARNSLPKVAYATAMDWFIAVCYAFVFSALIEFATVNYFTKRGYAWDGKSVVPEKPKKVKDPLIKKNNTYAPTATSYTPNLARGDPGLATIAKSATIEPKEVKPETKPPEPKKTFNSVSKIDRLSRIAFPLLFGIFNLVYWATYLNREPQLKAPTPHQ
T1 sequence (P47870 25-512 partner limits assumed): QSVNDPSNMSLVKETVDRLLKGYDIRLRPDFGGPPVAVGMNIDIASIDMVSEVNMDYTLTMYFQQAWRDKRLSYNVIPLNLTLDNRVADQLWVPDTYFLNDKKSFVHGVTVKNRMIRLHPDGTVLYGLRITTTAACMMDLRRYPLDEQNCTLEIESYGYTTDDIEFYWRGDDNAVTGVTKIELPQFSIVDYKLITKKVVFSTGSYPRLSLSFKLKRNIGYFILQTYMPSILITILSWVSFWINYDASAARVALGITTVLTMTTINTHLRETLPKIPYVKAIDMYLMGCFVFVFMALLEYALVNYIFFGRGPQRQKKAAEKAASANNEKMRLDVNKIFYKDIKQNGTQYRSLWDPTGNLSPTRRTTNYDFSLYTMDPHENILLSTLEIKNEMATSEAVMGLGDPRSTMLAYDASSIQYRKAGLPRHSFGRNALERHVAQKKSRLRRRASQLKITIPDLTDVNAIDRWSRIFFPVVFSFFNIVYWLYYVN
T1 sequence (P18507 40-467 limits assumed): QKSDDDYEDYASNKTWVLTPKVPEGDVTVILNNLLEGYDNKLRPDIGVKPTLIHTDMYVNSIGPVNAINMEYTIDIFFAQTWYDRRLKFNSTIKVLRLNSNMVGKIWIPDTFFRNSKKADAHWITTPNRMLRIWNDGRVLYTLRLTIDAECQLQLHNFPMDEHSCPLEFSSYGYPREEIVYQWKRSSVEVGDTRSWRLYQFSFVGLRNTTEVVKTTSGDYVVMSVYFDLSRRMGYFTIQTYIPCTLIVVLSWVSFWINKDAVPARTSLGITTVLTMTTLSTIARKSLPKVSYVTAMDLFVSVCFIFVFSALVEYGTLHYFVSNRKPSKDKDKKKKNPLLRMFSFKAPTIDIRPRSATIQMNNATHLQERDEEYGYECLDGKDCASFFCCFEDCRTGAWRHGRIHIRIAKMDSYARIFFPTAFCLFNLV
Description: (§1) GABA-A receptor modulators show in functional assays a positive modulation of GABA-induced signals. This modulation can be determined in vitro, e.g., at recombinant GABA-A receptors expressed in a mammalian cell line, e.g. by measurement of GABA-A receptor induced changes of the trans-membrane voltage, when using a voltage-sensitive dye and a fluorescence detection system (Adkins, C. E., Pillai, G. V., Kerby, J., Bonnert, T. P., Haldon, C., Mckernan, R. M., Gonzalez, J. E., Oades, K., Whiting, P. J. & Simpson, P. B. [2001]. alpha4beta3delta GABA-A receptors characterized by fluorescence resonance energy transfer-derived measurements of membrane potential. J. Biol. Chem., 276, 38934-38939). In this assay, a modulator compound is pre-applied at different concentrations ranging from 0.1 nM to 10 μM to cells expressing GABA-A receptors and loaded with the voltage-sensitive dye, before, or at the same time as, a sub-maximal concentration of GABA (in the range of from 0.1 to 10 μM) is applied to the cells. The fluorescent signal is correlated with the degree of GABA-A receptor channel opening. This allows the quantification of effects induced by the modulator in a functional manner. By expression of different GABA-A receptor subunit combinations, the differential efficacy of a modulator at different GABA-A receptor variants can be tested. Other functional assays include the electrophysiological recording of Xenopus oocytes or mammalian cells expressing respective receptor variants. In addition, ion flux detectors can be used to functionally study GABA-A receptors in heterologous expression systems. The affinity of a compound to the GABA-A receptor can be measured in radioligand binding experiments using reference ligands containing a radioactive element, e.g., tritiated flumazenil, and intact cells or membrane preparations of cells expressing GABA-A receptors.
(§2) Activity and selectivity of a GABA-A receptor modulator according to the invention can, e.g., be determined in vitro as follows: A transfected eukaryotic cell line expressing the alpha1, alpha2 or alpha3 subunit of the GABA-A receptor together with a beta and a gamma subunit of the GABA-A receptor is incubated with a voltage-sensitive dye, and the effects of an agonist (typically GABA) or modulator addition are recorded in a fluorimetric plate reader. The opening of the GABA-A receptor channel and the subsequent flux of anions through it changes the trans-membrane voltage of the transfected cells, leading to a change in the fluorescent signal of the voltage-sensitive dye. In the presence of the agent of the invention, a sub-maximal concentration of GABA (e.g. an EC20 or an EC50) added to transfected cells expressing the alpha1, alpha2 or alpha3 subunit of the GABA-A receptor will elicit an at least 50%, preferably an at least 80%, ideally an at least 100%, increase, of the fluorescent signal, compared to the fluorescent signal obtained without the agent of the invention. In this assay, agents of the invention modulate the GABA-induced response at concentration from about 0.1 to about 10′000 nM.

[2] = biological target: T2, GABA-A alpha2 receptor (alpha 2 subunit together with a beta and a gamma subunit) (Homo sapiens, UniProt P18507+P47869); experiment: GABA-A receptor modulation, voltage-sensitive dye fluorescence in transfected eukaryotic cell line (alpha2); format: cell-based; conditions: compounds at 3 μM, sub-maximal concentration of GABA (EC20); for activation at 3 µM: read-out: alpha2 % mod (percentage of increase of the fluorescent signal compared to signal without the agent)
T2 construct: expressed in transfected cells
T2 sequence (P47869 29-451): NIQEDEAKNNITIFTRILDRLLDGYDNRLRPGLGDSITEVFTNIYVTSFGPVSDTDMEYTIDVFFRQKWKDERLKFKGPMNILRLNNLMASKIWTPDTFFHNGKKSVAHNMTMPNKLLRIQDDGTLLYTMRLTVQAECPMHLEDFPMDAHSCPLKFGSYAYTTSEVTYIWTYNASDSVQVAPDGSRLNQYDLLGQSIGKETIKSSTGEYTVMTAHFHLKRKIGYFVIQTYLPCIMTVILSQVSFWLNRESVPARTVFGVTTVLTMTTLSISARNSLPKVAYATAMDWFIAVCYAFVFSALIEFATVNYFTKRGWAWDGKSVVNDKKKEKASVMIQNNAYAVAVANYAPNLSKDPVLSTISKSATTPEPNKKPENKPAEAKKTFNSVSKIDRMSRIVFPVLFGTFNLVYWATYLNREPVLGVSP
T2 sequence (P47870 25-512 partner limits assumed): T1 sequence (P47870 25-512 partner limits assumed)
T2 sequence (P18507 40-467 limits assumed): T1 sequence (P18507 40-467 limits assumed)
Description: as §1, §2

Compound	activation at 3 µM [1]	activation at 3 µM [2]	alpha1 % mod (percentage of increase of the fluorescent signal compared to signal without the agent) [1]	alpha2 % mod (percentage of increase of the fluorescent signal compared to signal without the agent) [2]
Fc1ccccc1-n1nc2c(cnc3ccccc32)c1OCCc1ccccc1Cl [Example 16, 3-[2-(2-chlorophenyl)ethoxy]-2-(2-fluorophenyl)-2H-pyrazolo[4,3-c]quinoline]	18%	101%	–	–
COc1ccc(-n2nc3c(cnc4ccccc43)c2OCCOc2ccccc2)cc1 [Example 13, 2-(4-methoxyphenyl)-3-(2-phenoxyethoxy)-2H-pyrazolo[4,3-c]quinoline]	-29%	52%	–	–
CCCCOc1c2cnc3ccccc3c2nn1-c1ccccc1 [Example 4, 3-butoxy-2-phenyl-2H-pyrazolo[4,3-c]quinoline]	137%	126%	–	–
Fc1ccc(-n2nc3c(cnc4ccccc43)c2OCc2ccccc2C(F)(F)F)cc1 [Example 50, 2-(4-fluorophenyl)-3-{[2-(trifluoromethyl)benzyl]oxy}-2H-pyrazolo[4,3-c]quinoline]	47%	236%	–	–
COc1ccc(-n2nc3c(cnc4ccccc43)c2OCCCN2CCN(C)C2=O)cc1 [Example 17, 1-(3-{[2-(4-methoxyphenyl)-2H-pyrazolo[4,3-c]quinolin-3-yl]oxy}propyl)-3-methylimidazolidin-2-one]	262%	577%	–	–
COc1ccc(-n2nc3c(cnc4ccccc43)c2OCCc2ccccc2Cl)cc1 [Example 15, 3-[2-(2-chlorophenyl)ethoxy]-2-(4-methoxyphenyl)-2H-pyrazolo[4,3-c]quinoline]	23%	197%	–	–
N#Cc1ccc2ncc3c(OCc4ccc(Cl)cc4)n(-c4ccccc4)nc3c2c1 [Example 32, 3-[(4-chlorobenzyl)oxy]-2-phenyl-2H-pyrazolo[4,3-c]quinoline-8-carbonitrile]	34%	88%	–	–
Cc1cccc2c1ncc1c(OCc3ccc(Cl)cc3)n(-c3ccccc3)nc12 [Example 31, 3-[(4-chlorobenzyl)oxy]-6-methyl-2-phenyl-2H-pyrazolo[4,3-c]quinoline]	51%	81%	–	–
Clc1ccc(-n2nc3c(cnc4ccc(Br)cc43)c2OCc2ccccc2Cl)cc1 [Example 115, 8-Bromo-3-(2-chloro-benzyloxy)-2-(4-chloro-phenyl)-2H-pyrazolo[4,3-c]quinoline]	26%	66%	–	–
COc1ccc(-n2nc3c(cnc4ccccc43)c2OCc2ccc(Cl)nc2)cc1 [Example 62, 3-[(6-chloropyridin-3-yl)methoxy]-2-(4-methoxypheny1)-2H-pyrazolo[4,3-c]quinoline]	–	–	55 % mod	141 % mod
Clc1ccccc1-n1nc2c(cnc3ccccc32)c1OCc1ccccc1Br [Example 41, 3-[(2-bromobenzyl)oxy]-2-(2-chlorophenyl)-2H-pyrazolo[4,3-c]quinoline]	289%	386%	–	–
Clc1ccc(-n2nc3c(cnc4ccc(-n5ccnc5)cc43)c2OCC2CCCC2)cc1 [Example 113, 2-(4-Chloro-phenyl)-3-cyclopentylmethoxy-8-imidazol-1-yl-2H-pyrazolo[4,3-c]quinoline]	63%	88%	–	–
COc1ccc(-n2nc3c(cnc4ccccc43)c2OCCc2ccc(Cl)cc2)cc1 [Example 14, 3-[2-(4-chlorophenyl)ethoxy]-2-(4-methoxyphenyl)-2H-pyrazolo[4,3-c]quinoline]	3%	34%	–	–
COc1ccc(-n2nc3c(cnc4ccccc43)c2OCc2ccc(C(F)(F)F)cc2)cc1 [Example 1, 2-(4-Methoxy-phenyl)-3-(4-trifluoromethyl-benzyloxy)-2H-pyrazolo[4,3-c]quinoline]	5%	36%	–	–
CN1CCN(CCOc2c3cnc4ccccc4c3nn2-c2ccc(Cl)cc2)CC1 [Example 99]	–	–	58 % mod	121 % mod
Fc1cccc2c1ncc1c(OCc3ccc(Cl)cc3)n(-c3ccccc3)nc12 [Example 33, 3-[(4-chlorobenzyl)oxy]-6-fluoro-2-phenyl-2H-pyrazolo[4,3-c]quinoline]	39%	73%	–	–
Clc1ccc(-n2nc3c(cnc4ccccc43)c2OCCN2CCOCC2)cc1 [Example 93, 2-(4-Chloro-phenyl)-3-(2-morpholin-4-yl-ethoxy)-2H-pyrazolo[4,3-c]quinoline]	17%	81%	–	–
